According to patent US8354400B2, “Benzoxazole compounds and methods of use” (Eisai R&D Co., Ltd., priority 2008, dated 2013):
Entries after “also recorded” stand apart in the source; their conditions may differ.

Experiments:
human TLR7 = molecular target: T1, human TLR7 (Homo sapiens, UniProt Q9NYK1); experiment: HEK/TLR7 activation assay (R848 stimulation); type: cell-based; conditions: HEK cells transfected with human TLR7
T1 construct: expressed in transfected cells; host or cells: HEK cell line (HEK293, as in the primary assay)
T1 sequence (Q9NYK1 27-1049): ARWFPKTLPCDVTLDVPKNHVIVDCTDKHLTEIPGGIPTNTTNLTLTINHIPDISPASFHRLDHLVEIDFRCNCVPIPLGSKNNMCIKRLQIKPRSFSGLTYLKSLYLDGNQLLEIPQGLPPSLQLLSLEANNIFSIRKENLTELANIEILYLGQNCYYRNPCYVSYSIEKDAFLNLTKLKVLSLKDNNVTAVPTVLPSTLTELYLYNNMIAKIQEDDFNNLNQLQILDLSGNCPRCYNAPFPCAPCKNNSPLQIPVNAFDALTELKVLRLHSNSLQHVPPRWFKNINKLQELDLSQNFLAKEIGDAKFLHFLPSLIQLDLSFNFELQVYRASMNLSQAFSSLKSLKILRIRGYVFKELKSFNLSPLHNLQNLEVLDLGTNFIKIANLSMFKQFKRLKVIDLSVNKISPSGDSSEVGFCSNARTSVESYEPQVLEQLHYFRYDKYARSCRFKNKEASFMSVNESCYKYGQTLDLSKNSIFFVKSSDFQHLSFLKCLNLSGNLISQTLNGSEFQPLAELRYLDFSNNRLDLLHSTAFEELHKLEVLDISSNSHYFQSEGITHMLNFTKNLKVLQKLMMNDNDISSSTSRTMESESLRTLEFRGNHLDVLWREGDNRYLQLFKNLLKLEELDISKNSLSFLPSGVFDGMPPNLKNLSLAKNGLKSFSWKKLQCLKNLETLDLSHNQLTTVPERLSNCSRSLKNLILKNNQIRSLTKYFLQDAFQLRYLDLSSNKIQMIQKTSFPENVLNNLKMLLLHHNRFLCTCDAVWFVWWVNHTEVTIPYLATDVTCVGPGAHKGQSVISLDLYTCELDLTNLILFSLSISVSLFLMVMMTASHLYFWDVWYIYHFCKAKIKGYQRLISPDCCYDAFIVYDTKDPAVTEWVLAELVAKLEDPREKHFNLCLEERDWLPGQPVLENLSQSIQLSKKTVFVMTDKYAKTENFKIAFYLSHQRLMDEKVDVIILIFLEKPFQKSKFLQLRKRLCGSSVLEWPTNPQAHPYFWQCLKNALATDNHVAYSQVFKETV
Experimental: (1) HEK/TLR7Activation Assay: The same compounds were tested in the same way as the primary assay with the following differences. The plasmid used to transfect the HEK cell line encoded for human TLR7 instead of TLR9, and R848 was used to stimulate the cells instead of Oligo CpG 2006.

[1] = tested on: human PBMC α-interferon response to Oligo CpG 2216; experiment: PBMC CpG 2216 assay (α-interferon ELISA); type: cell-based; conditions: Oligo CpG 2216, 72 hrs, read-out: PBMC CpG2216 IC50
Experimental: (4) PBMC CpG 2216 Assay: A subset of compounds tested as described above were also assayed for suppression of human peripheral blood mononuclear cells (PBMC) α-interferon response to stimulation with Oligo CpG 2216, a synthetic oligo phosphorothioate/phosphodiester oligonucleotide (Vollmer et al. Eur J. Immunol. 34:251-62 (2004)), with nucleotide sequence 5′-ggG GGA CGA TCG TCg ggg gG-3′ (small letters indicate phosphorothioate linkages, all others are phosphodiester) (SEQ ID NO:3). Each compound was added to […] from healthy volunteer donors before addition of stimulatory oligonucleotide. Cells were stimulated in culture for 72 hrs and the supernatant was removed for ELISA analysis of α-interferon level was performed using a VeriKine™ Human IFN-Alpha ELISA kit (Pestka Biomedical Laboratories, N.J.).

[2] = tested on: serum IL-6 after s.c. oligo CpG 1668 challenge; experiment: In vivo short term CpG stimulation assay (serum IL-6); set-up: species or system mice; conditions: for suppression of IL-6 (Table 3): 1.5 hours after oral administration of 20 mg/kg; for inhibition in vivo at 20 mg/kg: Mus musculus, po, 2 h, mice, oral in water, s.c. 30 micrograms oligo CpG 1668 within 90 minutes, serum two hours later, repeat assays separated by commas, read-out: Percent short-term IL-6 suppression
Experimental: Short Term CpG Stimulation Assay: Compounds identified as having potency in the HEK/TLR9 and splenocyte CpG 1668 assays described in Example 9, above, were tested in an in vivo short term CpG stimulation assay. Mice were orally administered compound in water, and challenged within 90 minutes by subcutaneous (s.c.) injection of 30 micrograms of oligo CpG 1668. Two hours later serum was taken and assayed for IL-6 using ELISA analysis. Results from assays repeated on different dates are set forth as multiple numbers separated by commas.

[3] = tested on: lymph node IL-6 release on CpG 1668 stimulation; experiment: Lymph node response: in vivo dosing, ex vivo CpG 1668 stimulation, IL-6 ELISA; set-up: species or system mice; conditions: for IL-6 release in the lymph nodes: mice, oral 20 mg/kg or 60 mg/kg daily for two weeks, ex vivo CpG 1668 1 μg/ml 72 hrs
Experimental: Mice were orally administered one of those two compounds or hydroxychloroquine (“HCQ”) at either 20 mg/kg or 60 mg/kg daily for two weeks. After in vivo dosing, lymph nodes were removed and stimulated in vitro with CpG 1668 at 1 μg/ml for 72 hrs, after which supernatants were removed and assayed by ELISA for IL-6. Levels of dosing are indicated after each compound name appearing in the Figure.

NZBWF1/J mice = experiment: NZBWF1/J spontaneous lupus model; type: in vivo; conditions: for anti-dsDNA: 16 weeks of treatment, 20 mg/kg or 60 mg/kg p.o.; for body weight: after 3 to 4 months of dosing; for distribution of ANA scores: after 12 weeks of treatment
Experimental: An in vivo study of Compound 23 and Compound 30 was conducted in an NZBWF1/J mouse model. Mice were obtained from Jackson Laboratories, divided into groups of 12, and dosed orally with compounds in water five days a week beginning at 5 months of age.

SMILES	IC50 (human TLR7) [µM]	IC50 [1] [µM]	inhibition in vivo at 20 mg/kg [2] [%]	further results
CN1CCCN(CCCOc2ccc(-c3nc4ccc(OCCCN5CCCN(C)CC5)cc4o3)cc2)CC1 [Compound 14]	0.62		0	suppression of IL-6 (Table 3) [2]: No suppression
c1cc(-c2nc3ccc(OCCCN4CCCC4)cc3o2)ccc1OCCCN1CCCC1 [Compound 23]	1.55	0.6	91	IL-6 release in the lymph nodes, low dose ([3]; 20 mg/kg oral daily for two weeks): particularly high levels of suppression; IL-6 release in the lymph nodes [3]: suppressed IL-6 release; proteinuria (NZBWF1/J mice; NZB/W mice): no effect; histological examination of muscle, brain, kidney and spleen (hematoxylin and eosin) (NZBWF1/J mice; NZBWF1/J mice): no obvious pathology; anti-dsDNA (NZBWF1/J mice; NZBWF1/J mice): Neither of the compounds tested in this study, Compound 23 or Compound 30, showed an effect on anti-dsDNA; also recorded: no effect; body weight (NZBWF1/J mice; NZBWF1/J mice): dose-related weight loss; distribution of ANA scores (NZBWF1/J mice; NZBWF1/J mice): no effect
c1cc(-c2nc3ccc(OCCCN4CCCCC4)cc3o2)ccc1OCCCN1CCCCC1 [Compound 30]	1.14	0.5	93	histological examination of muscle, brain, kidney and spleen (hematoxylin and eosin) (NZBWF1/J mice; NZBWF1/J mice): no obvious pathology; anti-dsDNA at high dose (NZBWF1/J mice; NZBWF1/J mice, 60 mg/kg p.o.): some suppression of anti-dsDNA at the high dose of 60 mg/kg, but, this was not statistically significant; anti-dsDNA (NZBWF1/J mice; NZBWF1/J mice): Neither of the compounds tested in this study, Compound 23 or Compound 30, showed an effect on anti-dsDNA; body weight (NZBWF1/J mice; NZBWF1/J mice): dose-related weight loss; distribution of ANA scores (NZBWF1/J mice; NZBWF1/J mice): no effect
CN(C)CCCN(C)CCCOc1ccc(-c2nc3ccc(OCCCN(C)CCCN(C)C)cc3o2)cc1 [Compound 27]	0.98		30	
CN(C)CCCOc1ccc(-c2nc3ccc(OCCCN(C)C)cc3o2)cc1 [Compound 2]	2.21	0.5		IL-6 release in the lymph nodes [3]: suppressed IL-6 release
c1cc(-c2nc3ccc(OCCCN4CCC(N5CCCC5)CC4)cc3o2)ccc1OCCCN1CCC(N2CCCC2)CC1 [Compound 20]	1.82	0.7	0	suppression of IL-6 (Table 3) [2]: No suppression
CCN(CC)CCNCCCOc1ccc(-c2nc3ccc(OCCCNCCN(CC)CC)cc3o2)cc1 [Compound 12]	0.78	0.5		

These reach a lower IC50 (human TLR7). Values come first.

IC50 (human TLR7) [µM]	SMILES	IC50 [1] [µM]	inhibition in vivo at 20 mg/kg [2] [%]	further results
0.44	CCN(CC)CCN(C)CCCOc1ccc(-c2nc3ccc(OCCCN(C)CCN(CC)CC)cc3o2)cc1 [Compound 31]	0.2		
0.43	CN(C)[C@@H]1CCN(CCCOc2ccc(-c3nc4ccc(OCCCN5CC[C@@H](N(C)C)C5)cc4o3)cc2)C1 [Compound 16]	0.4	50	
0.47	CN1CCN(c2ccc(CNCCCOc3ccc(-c4nc5ccc(OCCCNCc6ccc(N7CCN(C)CC7)cc6)cc5o4)cc3)cc2)CC1 [Compound 11]	0.6		
0.5	CN(C)CCN(C)CCCOc1ccc(-c2nc3ccc(OCCCN(C)CCN(C)C)cc3o2)cc1 [Compound 22]		36	
0.46	c1cc(CN2CCOCC2)ccc1CNCCCOc1ccc(-c2nc3ccc(OCCCNCc4ccc(CN5CCOCC5)cc4)cc3o2)cc1 [Compound 13]		40	
